We go through ten compounds from patent publication US8222297B2, “Aniline or phenol mustards linked to DNA-affinic molecules or water-soluble aromatic rings and their use as cancer therapeutic agents” (Academia Sinica, priority 2007, dated 2012).

Read-outs that look alike come from different tables or passages of the source.

In data set [1] the test system is human glioma U87 GM s.c. xenograft. Put plainly: Therapeutic effect in nude mice bearing U87 glioma xenograft. It counts as in vivo. The procedure:
(§1) Athymic nude mice bearing the nu/nu gene were used for human breast tumor MX-1 xenograft (FIGS. 3 and 4) and human brain glioma U87 GM xenograft (FIG. 5). Nude mice were obtained from National Cancer Institute, Frederick, Md. Male mice 6 weeks old or older weighing 22 g or more were used for experiments with subcutaneous tumor inoculation as described previously.^62 Drug was administrated via the tail vein by iv injection. Tumor volumes were assessed by measuring length×width×height (or width) by using caliper. Vehicle used was 20 μL DMSO in 180 μL saline. All animal studies were conducted in accordance with the guidelines of the U.S. National Institutes of Health Guide for the Care and Use of Animals and the protocol approved by the Institutional Animal Care and Use Committee.
The therapeutic effects of N-mustard compounds, BO-1049, 1051 and 1055, against human glioma U87 GM s.c. xenograft in nude mice were given in FIG. 5, A and B. U87 glioma is known to be refractory tumor that can not be effectively treated with cell-cycle specific anti-tumor drugs such as taxol, epothilones, or arabinosylcytosine. However, cell-cycle non-specific drugs such as alkylating agent, cyclophosphamide or BCNU, yields better therapeutic results. […] However, upon 6 days of recession of treatment with BO-1049 or BO-1055, the tumor began to regrow.
(§2) Animals. Athymic nude mice bearing the nu/nu gene were obtained from NCI, Frederick, Md. and used for all human tumor xenografts. Male nude mice 6 weeks or older weighing 20-24 g or more were used. Compounds were administered via the tail vein for i.v. injection or infusion as described previously.^59 A typical formulation for chemotherapeutic studies for each drug was dissolved in DSMO to make a 25 mg/ml fresh solution, 0.4 ml of this solution was mixed with 0.3 ml of Tween 80, plus 1.3 ml to make 2 ml of 5 mg/ml solution. Bolus injection volume was 0.1-0.2 ml per mouse. Tumor volume was assessed by measuring length×width×height (or width) by using a caliper. For tumor-bearing nude mice during the course of the experiment, the body weight refers to total weight minus the weight of the tumor. All animal studies were conducted in accordance with the guidelines for the National Institute of Health Guide for the Care and Use of Animals and the protocol approved by the Institutional Animal Care and Use Committee.

In data set [2] the test system is CCRF-CEM/Taxol. Briefly: In vitro cytotoxicity, XTT assay, taxol-resistant subline. The note with it: for fold of cross-resistant, CCRF-CEM/Taxol vs IC50 of parent cell line: number in brackets; for IC50: read-out: IC50 CCRF-CEM/Taxol, XTT assay, 72-hr incubation. On the technique in general: Formazan colour is commonly taken as a measure of viable cells.
For data set [3], the system named is CCRF-CEM human lymphoblastic leukemia cells. Put plainly: In vitro cytotoxicity, XTT assay.
The test system of data set [4] is Human mammary carcinoma (MX-1) tumor cells. Put plainly: In vitro cytotoxicity, SRB assay.
The subject of data set [5] is human mammary carcinoma MX-1 xenograft. Put plainly: Antitumor therapeutic effect in nude mice bearing MX-1 xenograft. In kind it is in vivo. The note with it: for log cell kill: estimated by Eq. 4 from remission time; for Duration complete remission maintained without relapse: one cycle 5-dose-treatment, 3 out of 3 mice. The procedure: as §1, §2
The therapeutic effects of a drug against human tumor xenografts in nude mice, under the optimal therapeutic conditions but without any lethality due to drug toxicity, the following degrees of therapeutic effects are defined and calculated by the following formula:
[formula] • where T0 is the initial tumor size (in mm^3) at beginning of drug treatment; • Tc is tumor size of untreated control group on a given date; and • Tx is tumor size of the drug treated group on a given date.
[formula] • Where T0 and Tx are as specified as above. • Tumor disappearance (complete remission or CR) is defined by the effect where [Tx=0] for a period of time (in days) for a proportion of animals (NCR/N), where N is the total number of animals in the group, and NCR is the number of mice in the group that achieved CR. • Tumor relapse is quantitatively calculated by [The Day tumor relapsed(Drelp)−The Day CR achieved(DCR)] (Eq. 3) • for a proportion of animals (Nrelp/N) where N is the total number of animals in the group, and Nrelp is the number of the mice in the group that relapsed. • The log cell kill (LCK) of the tumor tissue after a given chemotherapy that reached CR is estimated by: LCK=log [2^(Tumor remission in days/Tumor doubling time in days)] (Eq. 4)

The test system of data set [6] is Human colon carcinoma HCT-116 cells. Put plainly: In vitro cytotoxicity, SRB assay.
In data set [7] the test system is various human leukemia and solid tumor. The note with it: in vitro and in vivo; cited from earlier work.
The conditions of data set [8]: unpublished results of the applicant.
Where [9] appears, read: read-out: IC50 CCRF-CEM, XTT assay, 72-hr incubation.
The mark [10] stands for this setting: read-out: IC50 MX-1, SRB assay, 72-hr incubation.
The mark [11] stands for this setting: read-out: IC50 HCT-116, SRB assay, 72-hr incubation.
The mark [12] stands for this setting: Homo sapiens, CCRF-CEM, 72 h, read-out: IC50 CCRF-CEM, XTT assay, 72-hr incubation.
Setting [13] is: Homo sapiens, 72 h, read-out: IC50 MX-1, SRB assay, 72-hr incubation.
The mark [14] stands for this setting: Homo sapiens, HCT-116, 72 h, read-out: IC50 HCT-116, SRB assay, 72-hr incubation.
Where [15] appears, read: 150 mg/kg, Q2D×5, i.v.-injection.

Consider `CN(C)CCNC(=O)c1cccc(NC(=O)Nc2ccc(N(CCCl)CCCl)cc2)c1.Cl` [BO-1055, 3-(3-{4-[Bis(2-chloroethyl)amino]phenyl}ureido)-N-(2-dimethylaminoethyl)benzamide hydrochloride], for which, in data set [1] (30 mg/kg, Q2D×5, i.v.-injection), the “time after end of treatment at which tumor began to regrow” value was determined as 6 days. Further, in [2], the “fold of cross-resistant, CCRF-CEM/Taxol vs IC50 of parent cell line” value (shortened to “fold of cross-resistant, CCRF-CEM/Taxol”) amounted to 15.4 x. Besides, the IC50 in data set [2] is 1.2 µM; in data set [3] (setting [9]), 0.127 µM; in [4] (setting [10]), 0.551 µM; in data set [6] (setting [11]), 0.661 µM. Besides, the “Maximal body-weight loss (%)” value in [5] (30 mg/kg, Q2D × 5, i.v.) is 15%. Moreover, the log cell kill in [5] is more than 4.1. Also, in data set [5], the “Duration complete remission maintained without relapse” value is reported as “over 70 days”.

As for `COc1ccc2nc(C)cc(NNC(=O)Nc3ccc(N(CCCl)CCCl)cc3)c2c1`, the melting point (as a rule, the temperature of the solid-liquid transition) was 224 to 225 °C.

On to `Cc1cc(NNC(=O)Nc2ccc(N(CCCl)CCCl)cc2)c2ccccc2n1`, for which the melting point lay in the range of 235 to 236 °C.

Compound `Cc1cc(Oc2ccc(NC(=O)Nc3ccc(N(CCCl)CCCl)cc3)cc2)c2cc3c(cc2n1)OCO3` had a melting point of 217 to 218 °C.

As for `OCc1cc(Nc2c3ccccc3nc3ccccc23)cc(OCCN(CCCl)CCCl)c1` [BO-0742], the “cytotoxicity relative to AHMA (times more cytotoxic)” value in [7] is recorded as more than 100 time. Further, the half-life in mice entry in data set [8] was “about 25 min”.

For the compound `CC[C@]1(O)C[C@@H]2CN(CCc3c([nH]c4ccccc34)[C@@](C(=O)OC)(c3cc4c(cc3OC)N(C)[C@H]3[C@@](O)(C(=O)OC)[C@H](OC(C)=O)[C@]5(CC)C=CCN6CC[C@]43[C@@H]65)C2)C1` [Vinblastine, reference compound], the “fold of cross-resistant, CCRF-CEM/Taxol” value in data set [2] came to 106.2 x. In addition, the values for the IC50 in [3] (setting [12]), in data set [4] (setting [13]) and in data set [6] (setting [14]) were 0.00073 ± 9e-05 µM, 0.0029 ± 0.0005 µM and 0.0018 ± 0.0004 µM, respectively.

In the case of `COc1cc(N)cc(Nc2c3ccccc3nc3c(OCCN(CCCl)CCCl)cccc23)c1.Cl` [BO-0940, N1-(4-{2-[bis(2-chloroethyl)-amino]-ethoxy}acridin-9-yl)-5-methoxybenzene-1,3-diamine hydrochloride], the “cytotoxicity relative to AHMA (times more cytotoxic)” value in [7] was more than 100 time.

Regarding “1-{4-[Bis-(2-chloroethyl)amino]phenyl-3-[6-methoxy-2-(4-methoxyphenyl)quinolin-4-yl]urea [BO-1049]”, in [1] (setting [15]), the “time after end of treatment at which tumor began to regrow” value turned out to be 6 days and the tumor-growth suppression result is “complete tumor-growth suppression”. In data set [1] (BO-1049 150, BO-1051 100, BO-1055 30 mg/kg vs cyclophosphamide 80 mg/kg, all Q2D×5, parallel study), the “therapeutic effect compared with cyclophosphamide” value was “superior therapeutic effects than cyclophosphamide”. For the same compound, in [2], the “fold of cross-resistant, CCRF-CEM/Taxol” value worked out at 1.6 x and the IC50 was 0.587 µM. For the same compound, the IC50 in [3] (setting [9]) is 0.366 µM. Further, in data set [4] (setting [10]), the IC50 was determined as 1.84 µM. Further, in data set [5] (doses and schedules as in Table 2 (30-150 mg/kg, i.v.)), the “Tumor remission achieved” value was “complete tumor remission”. Moreover, in data set [5], the log cell kill is on record as more than 4.1 and the “Duration complete remission maintained without relapse” value is “over 70 days”. In addition, the IC50 in data set [6] (setting [11]) worked out at 3.75 µM.

On to `CC(=O)O[C@H]1C(=O)[C@@]2(C)[C@H]([C@H](OC(=O)c3ccccc3)[C@]3(O)C[C@H](OC(=O)[C@H](O)[C@@H](NC(=O)c4ccccc4)c4ccccc4)C(C)=C1C3(C)C)[C@]1(OC(C)=O)CO[C@@H]1C[C@@H]2O` [Taxol, reference compound], for which, in data set [2], the “fold of cross-resistant, CCRF-CEM/Taxol” value is 330 x. Besides, the IC50 was 0.0013 ± 0.0001 µM in [3] (setting [12]), 0.035 ± 0.014 µM in data set [4] (setting [13]) and 0.0013 ± 0.0002 µM in data set [6] (setting [14]).

The compound `Cc1cc(Oc2ccc(NC(=O)Oc3ccc(N(CCCl)CCCl)cc3)cc2)c2cc3c(cc2n1)OCO3` registered a melting point of 183 to 184 °C.
